In the supplement of paper PMC10307832:

Tests used:
Experiment in all cases: relative viability (nuclei count vs DMSO), 5 days (fraction); higher = more cells survive
Bemcentinib + Linsitinib = compound: Nc1nc(Nc2ccc3c(c2)CC[C@@H](N2CCCC2)CC3)nn1-c1cc2c(nn1)-c1ccccc1CCC2 [Bemcentinib] + C[C@]1(O)C[C@@H](c2nc(-c3ccc4ccc(-c5ccccc5)nc4c3)c3c(N)nccn32)C1 [Linsitinib] (partner 1 µM)
Procedure, shortened: (§1)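 Each reported value is a median over duplicate plates. It expresses relative viability: treated-well nuclei count divided by vehicle-well nuclei count. Lung cancer cell lines in 1536-well plates were dosed by pin tool a day after seeding, alone with one drug or with a fixed anchor-drug dose plus five library-drug doses (not always all listed) in √10 steps, and nuclei were counted after 5 days.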

[1] = compound: CC1=CC=C(C=C1)C(=O)CN2C3=C(CCCC3)SC2=N [Pifithrin_alpha] + CC1(C)CCC(c2ccc(Cl)cc2)=C(CN2CCN(c3ccc(C(=O)NS(=O)(=O)c4ccc(N[C@H](CCN5CCOCC5)CSc5ccccc5)c(S(=O)(=O)C(F)(F)F)c4)cc3)CC2)C1 [Navitoclax] (partner 0.5 µM)
Procedure, shortened: as §1

Axitinib + OSI-027 = compound: CNC(=O)c1ccccc1Sc1ccc2c(/C=C/c3ccccn3)n[nH]c2c1 [Axitinib] + COc1cccc2cc(-c3nc([C@H]4CC[C@H](C(=O)O)CC4)n4ncnc(N)c34)[nH]c12 [OSI-027] (partner 0.5 µM)
Procedure, shortened: as §1

Bemcentinib + Trametinib = compound: Nc1nc(Nc2ccc3c(c2)CC[C@@H](N2CCCC2)CC3)nn1-c1cc2c(nn1)-c1ccccc1CCC2 [Bemcentinib] + CC(=O)Nc1cccc(-n2c(=O)n(C3CC3)c(=O)c3c(Nc4ccc(I)cc4F)n(C)c(=O)c(C)c32)c1 [Trametinib] (partner 0.02 µM)
Procedure, shortened: as §1

## 201T
Bemcentinib + Linsitinib; first compound 0.04 µM
  relative viability: 1.03
Bemcentinib + Linsitinib; first compound 0.1265 µM
  relative viability: 1.04
Bemcentinib + Linsitinib; first compound 0.4 µM
  relative viability: 1.02
Bemcentinib + Linsitinib; first compound 1.265 µM
  relative viability: 1.07
Bemcentinib + Linsitinib; first compound 4 µM
  relative viability: 1.07
[1]; first compound 1 µM
  relative viability: 1.18
[1]; first compound 3.162 µM
  relative viability: 1.19
[1]; first compound 10 µM
  relative viability: 1.15
[1]; first compound 31.62 µM
  relative viability: 1.04
[1]; first compound 100 µM
  relative viability: 1.05
Axitinib + OSI-027; first compound 0.005 µM
  relative viability: 0.735
Axitinib + OSI-027; first compound 0.01581 µM
  relative viability: 0.675
Axitinib + OSI-027; first compound 0.05 µM
  relative viability: 0.502
Axitinib + OSI-027; first compound 0.1581 µM
  relative viability: 0.706
Axitinib + OSI-027; first compound 0.5 µM
  relative viability: 0.679
Bemcentinib + Trametinib; first compound 0.04 µM
  relative viability: 0.731
Bemcentinib + Trametinib; first compound 0.1265 µM
  relative viability: 0.778
Bemcentinib + Trametinib; first compound 0.4 µM
  relative viability: 0.744
Bemcentinib + Trametinib; first compound 1.265 µM
  relative viability: 0.743
Bemcentinib + Trametinib; first compound 4 µM
  relative viability: 0.734

## NCI-H1792
Bemcentinib + Linsitinib; first compound 0.04 µM
  relative viability: 0.539
Bemcentinib + Linsitinib; first compound 0.1265 µM
  relative viability: 0.441
Bemcentinib + Linsitinib; first compound 0.4 µM
  relative viability: 0.676
Bemcentinib + Linsitinib; first compound 1.265 µM
  relative viability: 0.645
Bemcentinib + Linsitinib; first compound 4 µM
  relative viability: 0.556
[1]; first compound 1 µM
  relative viability: 0.438
[1]; first compound 3.162 µM
  relative viability: 0.753
[1]; first compound 10 µM
  relative viability: 0.339
[1]; first compound 31.62 µM
  relative viability: 0.325
[1]; first compound 100 µM
  relative viability: 0.529
Axitinib + OSI-027; first compound 0.005 µM
  relative viability: 0.785
Axitinib + OSI-027; first compound 0.01581 µM
  relative viability: 0.652
Axitinib + OSI-027; first compound 0.05 µM
  relative viability: 0.563
Axitinib + OSI-027; first compound 0.1581 µM
  relative viability: 0.679
Axitinib + OSI-027; first compound 0.5 µM
  relative viability: 0.919
Bemcentinib + Trametinib; first compound 0.04 µM
  relative viability: 0.461
Bemcentinib + Trametinib; first compound 0.1265 µM
  relative viability: 0.422
Bemcentinib + Trametinib; first compound 0.4 µM
  relative viability: 0.549
Bemcentinib + Trametinib; first compound 1.265 µM
  relative viability: 0.569
Bemcentinib + Trametinib; first compound 4 µM
  relative viability: 0.43

## NCI-H1666
Bemcentinib + Linsitinib; first compound 0.04 µM
  relative viability: 0.932
Bemcentinib + Linsitinib; first compound 0.1265 µM
  relative viability: 0.872
Bemcentinib + Linsitinib; first compound 0.4 µM
  relative viability: 0.958
Bemcentinib + Linsitinib; first compound 1.265 µM
  relative viability: 0.972
Bemcentinib + Linsitinib; first compound 4 µM
  relative viability: 0.707
[1]; first compound 1 µM
  relative viability: 0.84
[1]; first compound 3.162 µM
  relative viability: 0.61
[1]; first compound 10 µM
  relative viability: 0.432
[1]; first compound 31.62 µM
  relative viability: 0.635
[1]; first compound 100 µM
  relative viability: 0.354
Axitinib + OSI-027; first compound 0.005 µM
  relative viability: 1.01
Axitinib + OSI-027; first compound 0.01581 µM
  relative viability: 0.86
Axitinib + OSI-027; first compound 0.05 µM
  relative viability: 0.88
Axitinib + OSI-027; first compound 0.1581 µM
  relative viability: 0.825
Axitinib + OSI-027; first compound 0.5 µM
  relative viability: 0.855
Bemcentinib + Trametinib; first compound 0.04 µM
  relative viability: 0.972
Bemcentinib + Trametinib; first compound 0.1265 µM
  relative viability: 0.954
Bemcentinib + Trametinib; first compound 0.4 µM
  relative viability: 0.926
Bemcentinib + Trametinib; first compound 1.265 µM
  relative viability: 1.01
Bemcentinib + Trametinib; first compound 4 µM
  relative viability: 0.925

## NCI-H1993
Bemcentinib + Linsitinib; first compound 0.04 µM
  relative viability: 0.699
Bemcentinib + Linsitinib; first compound 0.1265 µM
  relative viability: 0.735
Bemcentinib + Linsitinib; first compound 0.4 µM
  relative viability: 0.776
Bemcentinib + Linsitinib; first compound 1.265 µM
  relative viability: 0.773
Bemcentinib + Linsitinib; first compound 4 µM
  relative viability: 0.804
[1]; first compound 3.162 µM
  relative viability: 0.79
[1]; first compound 10 µM
  relative viability: 0.594
[1]; first compound 31.62 µM
  relative viability: 0.718
[1]; first compound 100 µM
  relative viability: 0.639
Axitinib + OSI-027; first compound 0.005 µM
  relative viability: 0.549
Axitinib + OSI-027; first compound 0.01581 µM
  relative viability: 0.573
Axitinib + OSI-027; first compound 0.05 µM
  relative viability: 0.582
Axitinib + OSI-027; first compound 0.1581 µM
  relative viability: 0.481
Axitinib + OSI-027; first compound 0.5 µM
  relative viability: 0.484
Bemcentinib + Trametinib; first compound 0.04 µM
  relative viability: 0.71
Bemcentinib + Trametinib; first compound 0.1265 µM
  relative viability: 0.394
Bemcentinib + Trametinib; first compound 0.4 µM
  relative viability: 0.467
Bemcentinib + Trametinib; first compound 1.265 µM
  relative viability: 0.493
Bemcentinib + Trametinib; first compound 4 µM
  relative viability: 0.482

## CAL-12T
Bemcentinib + Linsitinib; first compound 0.04 µM
  relative viability: 0.865
Bemcentinib + Linsitinib; first compound 0.1265 µM
  relative viability: 0.821
Bemcentinib + Linsitinib; first compound 0.4 µM
  relative viability: 0.927
Bemcentinib + Linsitinib; first compound 1.265 µM
  relative viability: 0.823
Bemcentinib + Linsitinib; first compound 4 µM
  relative viability: 0.863
[1]; first compound 3.162 µM
  relative viability: 1.22
[1]; first compound 10 µM
  relative viability: 1.16
[1]; first compound 31.62 µM
  relative viability: 0.686
[1]; first compound 100 µM
  relative viability: 1.15
Axitinib + OSI-027; first compound 0.005 µM
  relative viability: 0.847
Axitinib + OSI-027; first compound 0.01581 µM
  relative viability: 0.684
Axitinib + OSI-027; first compound 0.05 µM
  relative viability: 0.728
Axitinib + OSI-027; first compound 0.1581 µM
  relative viability: 0.597
Axitinib + OSI-027; first compound 0.5 µM
  relative viability: 0.634
Bemcentinib + Trametinib; first compound 0.04 µM
  relative viability: 0.347
Bemcentinib + Trametinib; first compound 0.1265 µM
  relative viability: 0.321
Bemcentinib + Trametinib; first compound 0.4 µM
  relative viability: 0.302
Bemcentinib + Trametinib; first compound 1.265 µM
  relative viability: 0.339
Bemcentinib + Trametinib; first compound 4 µM
  relative viability: 0.372

## NCI-H460
Bemcentinib + Linsitinib; first compound 0.04 µM
  relative viability: 0.907
Bemcentinib + Linsitinib; first compound 0.1265 µM
  relative viability: 1.04
Bemcentinib + Linsitinib; first compound 0.4 µM
  relative viability: 1.08
Bemcentinib + Linsitinib; first compound 1.265 µM
  relative viability: 0.983
Bemcentinib + Linsitinib; first compound 4 µM
  relative viability: 0.86
[1]; first compound 1 µM
  relative viability: 1.41
[1]; first compound 3.162 µM
  relative viability: 0.989
[1]; first compound 10 µM
  relative viability: 0.989
[1]; first compound 100 µM
  relative viability: 0.933
Axitinib + OSI-027; first compound 0.005 µM
  relative viability: 0.692
Axitinib + OSI-027; first compound 0.01581 µM
  relative viability: 0.603
Axitinib + OSI-027; first compound 0.05 µM
  relative viability: 0.665
Axitinib + OSI-027; first compound 0.1581 µM
  relative viability: 0.645
Axitinib + OSI-027; first compound 0.5 µM
  relative viability: 0.79
Bemcentinib + Trametinib; first compound 0.04 µM
  relative viability: 0.137
Bemcentinib + Trametinib; first compound 0.1265 µM
  relative viability: 0.185
Bemcentinib + Trametinib; first compound 0.4 µM
  relative viability: 0.147
Bemcentinib + Trametinib; first compound 1.265 µM
  relative viability: 0.158
Bemcentinib + Trametinib; first compound 4 µM
  relative viability: 0.259

## LC-2-ad
Bemcentinib + Linsitinib; first compound 0.04 µM
  relative viability: 0.831
Bemcentinib + Linsitinib; first compound 0.1265 µM
  relative viability: 0.851
Bemcentinib + Linsitinib; first compound 0.4 µM
  relative viability: 0.835
Bemcentinib + Linsitinib; first compound 1.265 µM
  relative viability: 0.888
Bemcentinib + Linsitinib; first compound 4 µM
  relative viability: 0.894
[1]; first compound 1 µM
  relative viability: 0.462
[1]; first compound 3.162 µM
  relative viability: 0.323
[1]; first compound 10 µM
  relative viability: 0.408
[1]; first compound 31.62 µM
  relative viability: 0.249
[1]; first compound 100 µM
  relative viability: 0.32
Axitinib + OSI-027; first compound 0.005 µM
  relative viability: 0.932
Axitinib + OSI-027; first compound 0.01581 µM
  relative viability: 0.827
Axitinib + OSI-027; first compound 0.05 µM
  relative viability: 0.907
Axitinib + OSI-027; first compound 0.1581 µM
  relative viability: 0.8
Axitinib + OSI-027; first compound 0.5 µM
  relative viability: 0.807
Bemcentinib + Trametinib; first compound 0.04 µM
  relative viability: 0.946
Bemcentinib + Trametinib; first compound 0.1265 µM
  relative viability: 0.963
Bemcentinib + Trametinib; first compound 0.4 µM
  relative viability: 0.952
Bemcentinib + Trametinib; first compound 1.265 µM
  relative viability: 0.98
Bemcentinib + Trametinib; first compound 4 µM
  relative viability: 0.962

## HCC-78
Bemcentinib + Linsitinib; first compound 0.04 µM
  relative viability: 0.572
Bemcentinib + Linsitinib; first compound 0.1265 µM
  relative viability: 0.56
Bemcentinib + Linsitinib; first compound 0.4 µM
  relative viability: 0.49
Bemcentinib + Linsitinib; first compound 1.265 µM
  relative viability: 0.634
Bemcentinib + Linsitinib; first compound 4 µM
  relative viability: 0.806
[1]; first compound 1 µM
  relative viability: 0.752
[1]; first compound 3.162 µM
  relative viability: 0.768
[1]; first compound 10 µM
  relative viability: 0.623
[1]; first compound 100 µM
  relative viability: 0.783
Axitinib + OSI-027; first compound 0.005 µM
  relative viability: 0.365
Axitinib + OSI-027; first compound 0.01581 µM
  relative viability: 0.335
Axitinib + OSI-027; first compound 0.05 µM
  relative viability: 0.358
Axitinib + OSI-027; first compound 0.1581 µM
  relative viability: 0.362
Axitinib + OSI-027; first compound 0.5 µM
  relative viability: 0.356
Bemcentinib + Trametinib; first compound 0.04 µM
  relative viability: 0.735
Bemcentinib + Trametinib; first compound 0.1265 µM
  relative viability: 0.746
Bemcentinib + Trametinib; first compound 0.4 µM
  relative viability: 0.936
Bemcentinib + Trametinib; first compound 1.265 µM
  relative viability: 0.809
Bemcentinib + Trametinib; first compound 4 µM
  relative viability: 0.801
